In article PMC4724290 (Synapse (New York, N.Y.), 2015):
“Also recorded” adds a separate entry of the source. Structures can show the parent of a compound that is named as a salt. Where two headings read alike, the source gives them in different places.

Key:
[1] = target: T1, σ2 receptors (Mus musculus, UniProt Q8VD00); assay: In vitro σ2 receptor binding, [^3H]DTG/; set-up: species or system CD-1 mouse
T1 sequence (Q8VD00 1-176): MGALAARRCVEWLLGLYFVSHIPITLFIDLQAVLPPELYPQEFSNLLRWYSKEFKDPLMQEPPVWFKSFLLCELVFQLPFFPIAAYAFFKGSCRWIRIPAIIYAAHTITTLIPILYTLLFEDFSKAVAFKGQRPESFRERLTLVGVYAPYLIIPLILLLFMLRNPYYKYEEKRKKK

[2] = target: T2, σ1 receptors (Mus musculus, UniProt O55242); assay: In vitro σ1 receptor binding, [^3H]; set-up: species or system CD-1 mouse; details: for Selectivity Ki Ratio σ2/σ1: CD-1 mouse whole brain membranes
T2 sequence (O55242 whole entry): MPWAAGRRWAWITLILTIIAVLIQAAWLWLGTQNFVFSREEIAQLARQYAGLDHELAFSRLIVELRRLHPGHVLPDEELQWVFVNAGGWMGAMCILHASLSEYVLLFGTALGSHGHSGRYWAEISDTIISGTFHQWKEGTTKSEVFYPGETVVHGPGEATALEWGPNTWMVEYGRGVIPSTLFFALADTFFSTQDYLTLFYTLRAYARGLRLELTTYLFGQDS

[3] = target: T2, σ1 receptors; details: read-out: Kd for σ1 sites in mouse brain membranes; ref Lever et al., 2012; cited from earlier work
[4] = target: T2, σ1 receptors; assay type: in vivo, CD-1 mice; details: for Occupancy of cerebral σ1 receptors: in the absence of (−)-cocaine
[5] = target: DAT; details: read-out: Ki for the DAT in vitro; ref Lever et al., 2012; cited from earlier work
[6] = target: striatal dopamine transporters (DAT) (Mus musculus, UniProt Q61327); assay: In vivo DAT occupancy: inhibition of [^125I]RTI-121 specific binding in striatum; set-up: species or system CD-1 mice; details: 10.0 μmol/kg i.p.
striatal dopamine transporters (DAT), sequence (Q61327 whole entry): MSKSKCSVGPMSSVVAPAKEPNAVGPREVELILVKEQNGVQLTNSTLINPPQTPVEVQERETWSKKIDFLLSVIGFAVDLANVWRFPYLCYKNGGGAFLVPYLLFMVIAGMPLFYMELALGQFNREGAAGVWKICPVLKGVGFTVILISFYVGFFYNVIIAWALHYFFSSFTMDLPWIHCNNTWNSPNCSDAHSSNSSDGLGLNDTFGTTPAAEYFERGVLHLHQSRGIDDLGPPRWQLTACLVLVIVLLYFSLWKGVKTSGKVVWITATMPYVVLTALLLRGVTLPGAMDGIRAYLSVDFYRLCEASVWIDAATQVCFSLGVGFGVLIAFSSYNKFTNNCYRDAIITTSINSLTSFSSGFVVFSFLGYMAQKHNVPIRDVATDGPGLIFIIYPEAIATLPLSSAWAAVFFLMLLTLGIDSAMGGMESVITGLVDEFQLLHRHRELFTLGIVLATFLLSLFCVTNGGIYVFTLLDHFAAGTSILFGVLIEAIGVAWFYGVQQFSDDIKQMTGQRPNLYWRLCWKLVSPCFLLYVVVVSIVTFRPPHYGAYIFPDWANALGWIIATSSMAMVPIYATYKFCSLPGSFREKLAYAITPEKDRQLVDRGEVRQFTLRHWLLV

[7] = tested on: CD-1 mice; assay: Locomotor activity: basal and; assay type: in vivo; details: i.p.; E-IA-DM-PE-PIPZE up to 3.16 μmol/kg, BD1063 3.16 and 31.6 μmol/kg; 60 min
[8] = target: σ1 receptors; details: read-out: σ1 Ki; ref Lever et al., 2015; cited from earlier work
[9] = target: σ2 receptors; details: read-out: Ki for σ2 receptors; ref Kovács and Larson (1995); cited from earlier work
[10] = 3.0 nM [^3H]DTG/500 nM (+)pentazocine, 25 °C, 60 min
[11] = 3.0 nM [^3H](+)pentazocine, 37 °C, 180 min
[12] = read-out: Sigma2 IC50, 3.0 nM [^3H]DTG/500 nM (+)pentazocine, 25 °C, 60 min
[13] = ligand i.p. 1 min prior to radioligand, 30 min, unconstrained fit
[14] = read-out: Sigma1 IC50, 3.0 nM [^3H](+)pentazocine, 37 °C, 180 min
[15] = homologous saturation, 25 °C, 60 min, two-site model

## Cc1ccccc1NC(=N)Nc1ccccc1C [DTG, 1,3-di(2-tolyl)guanidine]
[1]; [10]
  Sigma2 nH: 0.88 ± 0.05
[2]
  IC50: 173 ± 19.9 nM
  Ki: 112 ± 12.9 nM
[2]; [11]
  Sigma1 nH: 0.91 ± 0.14

## COc1ccc(CCN2CCN(C/C=C/I)CC2)cc1OC [[^125I]E-IA-DM-PE-PIPZE, [^125I]E-N-1-(3′-iodoallyl)-N′-4-(3″,4″-dimethoxyphenethyl)-piperazine]
[3]
  Kd: 3.79 nM

## COc1ccc(CCN2CCN(C/C=C/I)CC2)cc1OC [E-IA-DM-PE-PIPZE, E-N-1-(3′-iodoallyl)-N′-4-(3″,4″-dimethoxyphenethyl)-piperazine]
[1]; [10]
  Sigma2 nH: 0.98 ± 0.08
[1]; [12]
  IC50: 1.6 ± 0.243 µM
[4]; 0.316 μmol/kg i.p.
  Occupancy of cerebral σ1 receptors: 58%
[4]; 3.16 μmol/kg i.p.
  Occupancy of cerebral σ1 receptors: 86%
[4]; [13]
  ED50 for σ1 occupancy, brain: 0.23 µmol/kg
  ED50 for σ1 occupancy, heart: 0.03 µmol/kg
  ED50 for σ1 occupancy, lung: 0.08 µmol/kg
  ED50 for σ1 occupancy, spleen: 0.35 µmol/kg
[2]; [11]
  Sigma1 nH: 0.98 ± 0.07
[2]
  Selectivity Ki Ratio σ2/σ1: 215
[2]; [14]
  IC50: 10.4 ± 1.39 nM
[2]; read-out: Sigma1 Ki
  Ki: 6.73 ± 0.9 nM
[5]
  Ki: > 10 µM
[6]
  Inhibition of striatal [^125I]RTI-121 specific binding: did not affect radioligand binding; also recorded: No inhibition
[7]
  Effect on basal locomotor activity: do not significantly; also recorded: not affected

## C=CCN1CCC2(C)c3cc(O)ccc3CC1C2C (single isomer, unassigned; (+)) [(+)-NANM, (+)-N-allylnormetazocine]
[1]; [10]
  Sigma2 nH: 0.98 ± 0.12
[1]; [12]
  IC50: 8.99 ± 0.85 µM
[2]; [11]
  Sigma1 nH: 1.06 ± 0.11
[2]
  Selectivity Ki Ratio σ2/σ1: 608
[2]; [14]
  IC50: 20.6 ± 1.14 nM
[2]; read-out: Sigma1 Ki
  Ki: 13.3 ± 0.74 nM

## Cc1ccccc1NC(=N)Nc1ccccc1C [[^3H]DTG]
[1]; [15]
  Bmax, high affinity, low capacity site (σ2 receptor): 711 ± 81 fmol/mg protein
  Bmax, low affinity, high capacity site: 21307 ± 7059 fmol/mg protein

## COc1ccc2c(c1)[C@]13CCCC[C@@H]1[C@H](C2)N(C)CC3 [Dextromethorphan, dextromethorphan hydrobromide]
[1]
  IC50: 30 ± 2.82 µM
  Ki: 26.8 ± 2.53 µM
[2]
  IC50: 97.5 ± 6.9 nM
  Ki: 63.1 ± 4.5 nM
[2]; [11]
  Sigma1 nH: 0.88 ± 0.07
[8]
  Ki: 63 nM
[9]
  Ki: 1740 nM

## C=CCN1CCC2(C)c3cc(O)ccc3CC1C2C (single isomer, unassigned; (-)) [(−)-NANM, (−)-N-allylnormetazocine]
[1]; [10]
  Sigma2 nH: 0.93 ± 0.08
[1]; [12]
  IC50: 7.46 ± 0.469 µM
[2]; [11]
  Sigma1 nH: 1.09 ± 0.08
[2]
  Selectivity Ki Ratio σ2/σ1: 2.6
[2]; [14]
  IC50: 3980 ± 600 nM
[2]; read-out: Sigma1 Ki
  Ki: 2550 ± 383 nM
